The values that follow come from US10028999B2, “PAR-1 based therapeutic conjugates and uses thereof” (TEL HASHOMER MEDICAL RESEARCH INFRASTRUCTURE AND SERVICES …, priority 2014, dated 2018).

Common to all, as to format: biochemical
Series [1] concerns blood coagulation (prothrombin time). In words: Prothrombin time test. As to conditions: for PT: without conjugate 11.5.
Another series concerns blood coagulation (aPTT). In words: Activated partial thromboplastin time test. The conditions noted are these: for aPTT: without conjugate 30.5.
The test system of a further series is thrombin. Briefly: Thrombin time test. As to conditions: for TT: without conjugate 13.4.
Setting [2] is: 100 μM, most potent (1) to least potent (5).

Peptide text beside a SMILES is read from it. * marks the point of attachment. Tos = Cc1ccc(S(=O)(=O)*)cc1; CH2Cl = ClC*

On to `Cc1ccc(S(=O)(=O)N[C@@H](CC(C)C)C(=O)N[C@@H](CC(=O)O)C(=O)N2CCC[C@H]2C(=O)N[C@@H](CCCNC(=N)N)C(=O)CCl)cc1` [4AA, tosyl-LDPR-CK] (Tos-LDPR-CH2Cl), for which the PT in series [1] (10 nM) was determined as 11.5 s; in series [1] (1 μM), 11.4 s; in series [1] (100 μM), 12.7 s. The “Potency score in PT test” value in series [1] (setting [2]) came out at 5. For the same compound, the aPTT was determined as 30.8 s in the series on blood coagulation (aPTT) (10 nM), 30.9 s in the series with blood coagulation (aPTT) (1 μM) and 42.6 s with blood coagulation (aPTT) (100 μM). For the same compound, the “Potency score in aPTT test” value in the series with blood coagulation (aPTT) (setting [2]) is listed as 5. Further, the results for the TT in the series with thrombin (10 nM), with thrombin (1 μM) and with thrombin (100 μM) were 13.5 s, 14.6 s and over 80 s, respectively. The “Potency score in TT test” value in the series with thrombin (1 μM, most potent (1) to least potent (5)) stood at 5.
